Source: US20170355705A1 (GlaxoSmithKline Intellectual Property (No.2) Limited, priority 2014, published 2017)

Biological target: T1, SIRT1 (Homo sapiens, UniProt Q96EB6)
T1 sequence (Q96EB6 1-747): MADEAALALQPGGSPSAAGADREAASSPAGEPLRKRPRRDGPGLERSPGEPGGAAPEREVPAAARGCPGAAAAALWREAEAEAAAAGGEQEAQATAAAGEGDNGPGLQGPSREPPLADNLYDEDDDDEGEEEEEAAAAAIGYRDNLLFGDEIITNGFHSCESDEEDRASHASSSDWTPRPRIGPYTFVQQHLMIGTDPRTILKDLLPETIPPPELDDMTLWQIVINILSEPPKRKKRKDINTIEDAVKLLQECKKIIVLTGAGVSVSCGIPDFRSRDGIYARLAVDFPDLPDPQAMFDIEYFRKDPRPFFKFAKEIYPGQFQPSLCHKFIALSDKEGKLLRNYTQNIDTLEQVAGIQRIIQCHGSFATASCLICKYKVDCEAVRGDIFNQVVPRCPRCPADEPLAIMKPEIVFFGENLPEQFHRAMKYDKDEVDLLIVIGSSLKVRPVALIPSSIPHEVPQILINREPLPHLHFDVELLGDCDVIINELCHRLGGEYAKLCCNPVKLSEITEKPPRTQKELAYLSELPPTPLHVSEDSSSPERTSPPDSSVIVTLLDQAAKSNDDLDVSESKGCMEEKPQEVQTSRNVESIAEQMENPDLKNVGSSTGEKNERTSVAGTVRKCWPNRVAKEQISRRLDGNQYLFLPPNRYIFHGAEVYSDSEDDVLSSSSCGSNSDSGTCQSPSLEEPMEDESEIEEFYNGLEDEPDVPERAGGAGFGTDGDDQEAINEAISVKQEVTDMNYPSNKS
Assay: Trp mass spectrometry assay of SIRT1 activity (EC1.5, percent maximum activation)
Assay type: biochemical
Conditions: Trp mass spectrometry assay; for TRP Activity (EC1.5): EC1.5 = concentration giving 150% activation of SIRT1; for TRP MAX RESP (percent maximum fold activation): percent maximum activation of SIRT1
How it was run: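 N-terminal His-tagged human SIRT1, expressed in BL21(DE3) and purified, was incubated 25 min with an acetylated Trp peptide and NAD plus test compound at varying concentrations, then quenched with formic acid. OAADPR or deacetylated peptide was quantified by mass spectrometry versus compound-free control; EC1.5 is the concentration giving 50% activity increase, with percent maximum activation.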

| SMILES | TRP Activity (EC1.5) | TRP MAX RESP (percent maximum fold activation) |
| --- | --- | --- |
| O=C(Nc1ccnc(OC[C@H](O)CO)c1)N1c2nc(-c3cccc(C(F)(F)F)c3)ccc2N2CC[C@H]1C2 [Example 132, (4S)-N-(2-((R)-2,3-dihydroxypropoxy)pyridin-4-yl)-7-(3-(trifluoromethyl)phenyl)-3,4-dihydro-1,4-methanopyrido[2,3-b][1,4]diazepine-5(2H)-carboxamide] | A (EC1.5<1 μM) | A (Fold activation ≧150%) |
| Cc1cc(-c2ccc3c(n2)N(C(=O)Nc2ccc4[nH]ncc4n2)[C@H]2CCN3C2)ccn1 [Example 133, (4S)-7-(2-methylpyridin-4-yl)-N-(1H-pyrazolo[4,3-b]pyridin-5-yl)-3,4-dihydro-1,4-methanopyrido[2,3-b][1,4]diazepine-5(2H)-carboxamide] | A (EC1.5<1 μM) | A (Fold activation ≧150%) |
| O=C(Nc1ccnc(OC[C@@H](O)CO)n1)N1c2nc(-c3cccc(C(F)(F)F)c3)ccc2N2CC[C@H]1C2 [Example 134, (4S)-N-(2-((S)-2,3-dihydroxypropoxy)pyrimidin-4-yl)-7-(3-(trifluoromethyl)phenyl)-3,4-dihydro-1,4-methanopyrido[2,3-b][1,4]diazepine-5(2H)-carboxamide] | A (EC1.5<1 μM) | A (Fold activation ≧150%) |
| Cc1cc(-c2ccc3c(n2)N(C(=O)Nc2cnccn2)[C@H]2CCN3C2)cc(C)n1 [Example 135, (4S)-7-(2,6-dimethylpyridin-4-yl)-N-(pyrazin-2-yl)-3,4-dihydro-1,4-methanopyrido[2,3-b][1,4]diazepine-5(2H)-carboxamide] | – | A (Fold activation ≧150%) |
| O=C(Nc1cnccn1)N1c2nc(-c3ccnc(C4CC4)c3)ccc2N2CC[C@H]1C2 [Example 136, (4S)-7-(2-cyclopropylpyridin-4-yl)-N-(pyrazin-2-yl)-3,4-dihydro-1,4-methanopyrido[2,3-b][1,4]diazepine-5(2H)-carboxamide] | A (EC1.5<1 μM) | A (Fold activation ≧150%) |
| CC(C)c1cc(-c2ccc3c(n2)N(C(=O)Nc2cnccn2)[C@H]2CCN3C2)ccn1 [Example 137, (4S)-7-(2-isopropylpyridin-4-yl)-N-(pyrazin-2-yl)-3,4-dihydro-1,4-methanopyrido[2,3-b][1,4]diazepine-5(2H)-carboxamide] | A (EC1.5<1 μM) | A (Fold activation ≧150%) |
| Cc1cc(-c2ccc3c(n2)N(C(=O)Nc2cn(C)nn2)[C@H]2CCN3C2)ccn1 [Example 138, (4S)-N-(1-methyl-1H-1,2,3-triazol-4-yl)-7-(2-methylpyridin-4-yl)-3,4-dihydro-1,4-methanopyrido[2,3-b][1,4]diazepine-5(2H)-carboxamide] | B (EC1.5 1-25 μM) | A (Fold activation ≧150%) |
| CCc1cc(-c2ccc3c(n2)N(C(=O)Nc2cnccn2)[C@H]2CCN3C2)ccn1 [Example 139, (4S)-7-(2-ethylpyridin-4-yl)-N-(pyrazin-2-yl)-3,4-dihydro-1,4-methanopyrido[2,3-b][1,4]diazepine-5(2H)-carboxamide] | A (EC1.5<1 μM) | A (Fold activation ≧150%) |
| CCOc1cc(-c2ccc3c(n2)N(C(=O)Nc2cnccn2)[C@H]2CCN3C2)ccn1 [Example 140, (4S)-7-(2-ethoxypyridin-4-yl)-N-(pyrazin-2-yl)-3,4-dihydro-1,4-methanopyrido[2,3-b][1,4]diazepine-5(2H)-carboxamide] | B (EC1.5 1-25 μM) | A (Fold activation ≧150%) |
| COc1cc(-c2ccc3c(n2)N(C(=O)Nc2cnccn2)[C@H]2CCN3C2)ccn1 [Example 141, (4S)-7-(2-methoxypyridin-4-yl)-N-(pyrazin-2-yl)-3,4-dihydro-1,4-methanopyrido[2,3-b][1,4]diazepine-5(2H)-carboxamide] | B (EC1.5 1-25 μM) | A (Fold activation ≧150%) |
| COc1cc(-c2ccc3c(n2)N(C(=O)Nc2cnccn2)[C@H]2CCN3C2)cc(C)n1 [Example 142, (4S)-7-(2-methoxy-6-methylpyridin-4-yl)-N-(pyrazin-2-yl)-3,4-dihydro-1,4-methanopyrido[2,3-b][1,4]diazepine-5(2H)-carboxamide] | B (EC1.5 1-25 μM) | A (Fold activation ≧150%) |
| Cc1cc(-c2ccc3c(n2)N(C(=O)Nc2ncn(C)n2)[C@H]2CCN3C2)ccn1 [Example 143, (4S)-N-(1-methyl-1H-1,2,4-triazol-3-yl)-7-(2-methylpyridin-4-yl)-3,4-dihydro-1,4-methanopyrido[2,3-b][1,4]diazepine-5(2H)-carboxamide] | B (EC1.5 1-25 μM) | A (Fold activation ≧150%) |
| CNc1cc(-c2ccc3c(n2)N(C(=O)Nc2cnccn2)[C@H]2CCN3C2)ccn1 [Example 144, (4S)-7-(2-(methylamino)pyridin-4-yl)-N-(pyrazin-2-yl)-3,4-dihydro-1,4-methanopyrido[2,3-b][1,4]diazepine-5(2H)-carboxamide] | B (EC1.5 1-25 μM) | A (Fold activation ≧150%) |
| Cc1cc(-c2ccc3c(n2)N(C(=O)Nc2nccc4[nH]cnc24)[C@H]2CCN3C2)ccn1 [Example 145, (4S)-N-(1H-imidazo[4,5-c]pyridin-4-yl)-7-(2-methylpyridin-4-yl)-3,4-dihydro-1,4-methanopyrido[2,3-b][1,4]diazepine-5(2H)-carboxamide] | B (EC1.5 1-25 μM) | A (Fold activation ≧150%) |
| O=C(Nc1cnccn1)N1c2nc(-c3ccc(CO)nc3)ccc2N2CC[C@H]1C2 [Example 147, (4S)-7-(6-(hydroxymethyl)pyridin-3-yl)-N-(pyrazin-2-yl)-3,4-dihydro-1,4-methanopyrido[2,3-b][1,4]diazepine-5(2H)-carboxamide] | B (EC1.5 1-25 μM) | A (Fold activation ≧150%) |
| Cc1cc(-c2ccc3c(n2)N(C(=O)Nc2cnc4c(c2)OCCO4)[C@H]2CCN3C2)ccn1 [Example 148, (4S)-N-(2,3-dihydro-[1,4]dioxino[2,3-b]pyridin-7-yl)-7-(2-methylpyridin-4-yl)-3,4-dihydro-1,4-methanopyrido[2,3-b][1,4]diazepine-5(2H)-carboxamide] | – | A (Fold activation ≧150%) |
| Cc1cc(-c2ccc3c(n2)N(C(=O)N2CCOCC2)[C@H]2CCN3C2)ccn1 [Example 150, ((4S)-7-(2-methylpyridin-4-yl)-3,4-dihydro-1,4-methanopyrido[2,3-b][1,4]diazepin-5(2H)-yl)(morpholino)methanone] | C (EC1.5>25 μM) | B (Fold Activation <150%) |
| Cc1cc(-c2ccc3c(n2)N(C(=O)N2CCCCC2)[C@H]2CCN3C2)ccn1 [Example 151, ((4S)-7-(2-methylpyridin-4-yl)-3,4-dihydro-1,4-methanopyrido[2,3-b][1,4]diazepin-5(2H)-yl)(piperidin-1-yl)methanone] | C (EC1.5>25 μM) | B (Fold Activation <150%) |
| Cc1cc(-c2ccc3c(n2)N(C(=O)Nc2nccc4nccnc24)[C@H]2CCN3C2)ccn1 [Example 152, (4S)-7-(2-methylpyridin-4-yl)-N-(pyrido[3,4-b]pyrazin-5-yl)-3,4-dihydro-1,4-methanopyrido[2,3-b][1,4]diazepine-5(2H)-carboxamide] | B (EC1.5 1-25 μM) | A (Fold activation ≧150%) |
| Cc1cc(-c2ccc3c(n2)N(C(=O)Nc2cccc4nnc(C)cc24)[C@H]2CCN3C2)ccn1 [Example 153, (4S)-N-(3-methylcinnolin-5-yl)-7-(2-methylpyridin-4-yl)-3,4-dihydro-1,4-methanopyrido[2,3-b][1,4]diazepine-5(2H)-carboxamide] | B (EC1.5 1-25 μM) | A (Fold activation ≧150%) |
| Cc1cncc(-c2ccc3c(n2)N(C(=O)Nc2cnccn2)[C@H]2CCN3C2)c1 [Example 154, (4S)-7-(5-methylpyridin-3-yl)-N-(pyrazin-2-yl)-3,4-dihydro-1,4-methanopyrido[2,3-b][1,4]diazepine-5(2H)-carboxamide] | B (EC1.5 1-25 μM) | A (Fold activation ≧150%) |
